Results from patent publication US8785488B2 (Exelixis Patent Company LLC, priority 2009, dated 2014).

Columns and labels:
human TGR5 (h-TGR5) = target: T1, human TGR5 (h-TGR5) (Homo sapiens, UniProt Q8TDU6); experiment: TGR5/CRE-Luciferiase Assay (HEK 293 hTGR5/CRE-Luc cells); type: cell-based; conditions: h-TGR5 CRE-Luc EC50, Table 1; read-out: CRE-Luc (EC50)
T1 construct: expressed in transfected cells
T1 sequence (Q8TDU6 1-330): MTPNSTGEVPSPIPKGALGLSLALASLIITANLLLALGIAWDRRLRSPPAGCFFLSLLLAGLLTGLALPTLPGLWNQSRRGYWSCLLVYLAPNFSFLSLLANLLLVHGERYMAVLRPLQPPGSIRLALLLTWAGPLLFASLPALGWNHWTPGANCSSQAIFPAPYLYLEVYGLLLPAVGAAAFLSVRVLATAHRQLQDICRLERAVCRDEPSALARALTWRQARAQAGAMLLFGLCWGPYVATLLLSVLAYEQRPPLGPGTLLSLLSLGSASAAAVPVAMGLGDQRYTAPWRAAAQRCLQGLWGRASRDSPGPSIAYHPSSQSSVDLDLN
Method in brief: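 HEK293 cells stably carrying hTGR5 and a CRE-luciferase reporter were exposed to serially diluted compounds (diluted in DMEM with 5% DMSO) for 6 h. Cells were then lysed in luciferase buffer, luminescence was read, and EC50 values were derived from dose-response curves.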

h-TGR5 = target: T2, h-TGR5 (Homo sapiens, UniProt Q8TDU6); experiment: TGR5 cAMP Assay using Cisbio cAMP Dynamic2 htrf kit (hTGR5CRE-luc HEK 293 cells); type: cell-based; conditions: h-TGR5 cAMP EC50, Table 1; read-out: cAMP (EC50)
T2 construct: expressed in transfected cells
T2 sequence (Q8TDU6 1-330): T1 sequence (Q8TDU6 1-330)
Method in brief: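 […], 4000 hTGR5CRE-luc HEK 293 cells per well, with 0.5 mM IBMX and d2-cAMP, were incubated 30 min at room temperature with compounds in 8-point half-log series, in quadruplicate.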

| Structure (SMILES) | EC50 (human TGR5 (h-TGR5)) [nM] | EC50 (h-TGR5) [nM] |
| --- | --- | --- |
| CC(C)(c1ccc(S(N)(=O)=O)cc1)c1cnc(SCc2c(F)cccc2Cl)n1-c1ccc(F)cc1 [4-{1-[2-{[(2-chloro-6-fluorophenyl)methyl]thio}-1-(4-fluorophenyl)-1H-imidazol-5-yl]-1-methylethyl}benzenesulfonamide] | 100 to 1000 | 100 to 1000 |
| COc1cc(-n2c(C(C)(C)c3ccc(S(N)(=O)=O)c(Cl)c3)cnc2SCc2ccc(S(=O)(=O)NC(=O)NN3CCOCC3)cc2Cl)ccc1F [4-{[(5-{1-[4-(aminosulfonyl)-3-chlorophenyl]-1-methylethyl}-1-[4-fluoro-3-(methyloxy)phenyl]-1H-imidazol-2-yl)thio]methyl}-3-chloro-N-[(morpholin-4-ylamino)carbonyl]benzenesulfonamide] | 100 to 1000 | < 100 |
| COc1cc(-n2c(C(C)(C)c3ccc(S(N)(=O)=O)c(Cl)c3)cnc2SCc2ccc(S(=O)(=O)NC(=O)NN3CCCCC3)cc2Cl)ccc1F [4-{[(5-{1-[4-(aminosulfonyl)-3-chlorophenyl]-1-methylethyl}-1-[4-fluoro-3-(methyloxy)phenyl]-1H-imidazol-2-yl)thio]methyl}-3-chloro-N-[(piperidin-1-ylamino)carbonyl]benzenesulfonamide] | 100 to 1000 | 100 to 1000 |
| COc1cc(-n2c(C(C)(C)c3ccc(S(N)(=O)=O)cc3)cnc2SCc2c(F)cc(C(=O)O)cc2F)ccc1F [4-{[(5-{1-[4-(aminosulfonyl)phenyl]-1-methylethyl}-1-[4-fluoro-3-(methyloxy)phenyl]-1H-imidazol-2-yl)thio]methyl}-3,5-difluorobenzoic acid] | 100 to 1000 | 100 to 1000 |
| COc1cc(-n2c(C(C)(C)c3ccc(S(C)(=O)=O)cc3)cnc2SCc2ccc(Cl)c(-c3nnn[nH]3)c2)ccc1F [5-(2-chloro-5-{[(1-[4-fluoro-3-(methyloxy)phenyl]-5-{1-methyl-1-[4-(methylsulfonyl)phenyl]ethyl}-1H-imidazol-2-yl)thio]methyl}phenyl)-1H-tetrazole] | 100 to 1000 | 100 to 1000 |
| CC(C)(c1ccc(Cl)c(Cl)c1)c1cnc(SCC2CCN(S(C)(=O)=O)C2)n1-c1ccc(F)cc1 (stereo not shown) [5-[1-(3,4-dichlorophenyl)-1-methylethyl]-1-(4-fluorophenyl)-2-({[1-(methylsulfonyl)pyrrolidin-3-yl]methyl}thio)-1H-imidazole] | 100 to 1000 | 100 to 1000 |
| CC(C)(c1ccc(Cl)c(Cl)c1)c1cnc(SCc2c(F)cccc2F)n1-c1ccc(F)cc1 [5-[1-(3,4-dichlorophenyl)-1-methylethyl]-2-{[(2,6-difluorophenyl)methyl]thio}-1-(4-fluorophenyl)-1H-imidazole] | < 100 | 100 to 1000 |
| CC(C)(c1ccc(F)c(Cl)c1)c1cnc(SCc2c(F)cccc2Cl)n1-c1ccc(F)cc1 [5-[1-(3-chloro-4-fluorophenyl)-1-methylethyl]-2-{[(2-chloro-6-fluorophenyl)methyl]thio}-1-(4-fluorophenyl)-1H-imidazole] | < 100 | 100 to 1000 |
| CC(C)(c1ccc(Cl)cc1F)c1cnc(SCc2c(F)cccc2Cl)n1-c1ccc(F)cc1 [5-[1-(4-chloro-2-fluorophenyl)-1-methylethyl]-2-{[(2-chloro-6-fluorophenyl)methyl]thio}-1-(4-fluorophenyl)-1H-imidazole] | 100 to 1000 | 100 to 1000 |
| COc1ccc(C2CCCCN2S(=O)(=O)c2ncc(C(C)(C)c3ccc(Cl)c(Cl)c3)n2-c2ccc(F)cc2)cn1 (stereo not shown) [5-[1-({5-[1-(3,4-dichlorophenyl)-1-methylethyl]-1-(4-fluorophenyl)-1H-imidazol-2-yl}sulfonyl)piperidin-2-yl]-2-(methyloxy)pyridine] | 100 to 1000 | 100 to 1000 |
| COc1ccc(C(C)(C)c2cnc(SCc3cc(-c4nnn[nH]4)c(Cl)cc3Cl)n2-c2ccc(F)cc2)cc1Cl [5-[2,4-dichloro-5-({[5-{1-[3-chloro-4-(methyloxy)phenyl]-1-methylethyl}-1-(4-fluorophenyl)-1H-imidazol-2-yl]thio}methyl)phenyl]-1H-tetrazole] | < 100 | 100 to 1000 |

Now from value to compound:

| EC50 (human TGR5 (h-TGR5)) [nM] | EC50 (h-TGR5) [nM] | Structure (SMILES) |
| --- | --- | --- |
| < 100 | 100 to 1000 | CC(C)(c1ccc(O)c(O)c1)c1cnc(SCc2c(F)cccc2Cl)n1-c1ccc(F)cc1 [4-{1-[2-{[(2-chloro-6-fluorophenyl)methyl]thio}-1-(4-fluorophenyl)-1H-imidazol-5-yl]-1-methylethyl}benzene-1,2-diol] |
| < 100 | < 100 | COc1cc(-n2c(C(C)(C)c3ccc(S(N)(=O)=O)c(Cl)c3)cnc2SCc2c(F)cc(S(=O)(=O)NC(=O)NN3CCOCC3)cc2F)ccc1F [4-{[(5-{1-[4-(aminosulfonyl)-3-chlorophenyl]-1-methylethyl}-1-[4-fluoro-3-(methyloxy)phenyl]-1H-imidazol-2-yl)thio]methyl}-3,5-difluoro-N-[(morpholin-4-ylamino)carbonyl]benzenesulfonamide] |
| < 100 | < 100 | COc1cc(-n2c(C(C)(C)c3ccc(S(N)(=O)=O)c(Cl)c3)cnc2SCc2c(F)cc(C(=O)O)cc2F)ccc1F [4-{[(5-{1-[4-(aminosulfonyl)-3-chlorophenyl]-1-methylethyl}-1-[4-fluoro-3-(methyloxy)phenyl]-1H-imidazol-2-yl)thio]methyl}-3,5-difluorobenzoic acid] |
| < 100 | < 100 | COc1cc(C(C)(C)c2cnc(SCc3c(F)cc(OCc4nnn[nH]4)cc3F)n2-c2ccc(F)cc2)ccc1Cl [5-({[4-({[5-{1-[4-chloro-3-(methyloxy)phenyl]-1-methylethyl}-1-(4-fluorophenyl)-1H-imidazol-2-yl]thio}methyl)-3,5-difluorophenyl]oxy}methyl)-1H-tetrazole] |
| < 100 | < 100 | COc1ccc(C(C)(C)c2cnc(SCc3ccc(F)c(C(N)=O)c3)n2-c2ccc(F)cc2)cc1OC [5-({[5-{1-[3,4-bis(methyloxy)phenyl]-1-methylethyl}-1-(4-fluorophenyl)-1H-imidazol-2-yl]thio}methyl)-2-fluorobenzamide] |
| < 100 | < 100 | COc1ccc(C(C)(C)c2cnc(SCc3ccc(F)c(S(N)(=O)=O)c3)n2-c2ccc(F)cc2)cc1OC [5-({[5-{1-[3,4-bis(methyloxy)phenyl]-1-methylethyl}-1-(4-fluorophenyl)-1H-imidazol-2-yl]thio}methyl)-2-fluorobenzenesulfonamide] |
| < 100 | < 100 | COc1ccc(C(C)(C)c2cnc(SCc3ccc(F)c(S(N)(=O)=O)c3)n2-c2ccc(F)cc2)cc1Cl [5-({[5-{1-[3-chloro-4-(methyloxy)phenyl]-1-methylethyl}-1-(4-fluorophenyl)-1H-imidazol-2-yl]thio}methyl)-2-fluorobenzenesulfonamide] |
| < 100 | < 100 | COc1cc(C(C)(C)c2cnc(SCc3ccc(F)c(S(N)(=O)=O)c3)n2-c2ccc(F)cc2)ccc1Cl [5-({[5-{1-[4-chloro-3-(methyloxy)phenyl]-1-methylethyl}-1-(4-fluorophenyl)-1H-imidazol-2-yl]thio}methyl)-2-fluorobenzenesulfonamide] |
| < 100 | 100 to 1000 | CC(C)(c1ccc(Cl)c(Cl)c1)c1cnc(SCc2ccc(F)c(S(C)(=O)=O)c2)n1-c1ccc(F)cc1 [5-[1-(3,4-dichlorophenyl)-1-methylethyl]-2-({[4-fluoro-3-(methylsulfonyl)phenyl]methyl}thio)-1-(4-fluorophenyl)-1H-imidazole] |
